Source: the supplement of paper PMC13380429

Experiments:
[1] = test system: A549-ACE2 infected with SARS-CoV-2; assay: cell count relative to DMSO; higher = less toxic; conditions: 24 h
A549-ACE2 = assay: drug-induced phospholipidosis relative to tamoxifen; higher = more phospholipidosis
Caco-2 [2] = assay: drug sensitivity score (DSS) for viability; higher = more toxic; extreme values may be limits of the assay; conditions: 72 h
HepG2 [3] = assay: as above; conditions: 72 h
Calu-3 [4] = assay: as above; conditions: 72 h
Vero E6 [5] = assay: as above; conditions: 72 h
U2OS [6] = assay: as above; conditions: 72 h
[7] = test system: A549-ACE2 infected with SARS-CoV-2; assay: SARS-CoV-2 infection rate relative to DMSO; higher = more infection; conditions: 24 h
Caco-2 [8] = assay: relative viability EC50 (midpoint between 100% and the lowest measured viability); higher = less toxic; conditions: 72 h
Calu-3 [9] = assay: as above; conditions: 72 h
Vero E6 [10] = assay: as above; conditions: 72 h
U2OS [11] = assay: as above; conditions: 72 h
Caco-2 [12] = assay: cell viability relative to DMSO; higher = less toxic; conditions: 72 h
HepG2 [13] = assay: as above; conditions: 72 h
Calu-3 [14] = assay: as above; conditions: 72 h
Vero E6 [15] = assay: as above; conditions: 72 h
U2OS [16] = assay: as above; conditions: 72 h
[17] = test system: A549-ACE2 infected with SARS-CoV-2; assay: morphology score (similarity to uninfected cells); higher = more like uninfected cells; conditions: 24 h
HepG2 [18] = assay: relative viability EC50 (midpoint between 100% and the lowest measured viability); higher = less toxic; conditions: 72 h

COc1cc(/C=C/C(=O)CC(=O)/C=C/c2ccc(O)c(OC)c2)ccc1O [curcumin]
Conditions | SARS-CoV-2 infection rate, [7] [%] | cell count, [1] [%] | cell viability, Caco-2 [12] [%] | cell viability, Calu-3 [14] [%] | cell viability, HepG2 [13] [%] | cell viability, U2OS [16] [%] | cell viability, Vero E6 [15] [%] | morphology score, [17]
1 nM | – | – | 97.6 | 99.9 | 104 | 99.8 | 99.9 | –
10 nM | – | – | 102 | 103 | 102 | 107 | 96.3 | –
100 nM | – | – | 97.9 | 102 | 98.2 | 95.5 | 95.2 | –
0.3 µM | 102 | 89 | – | – | – | – | – | -0.12
1000 nM | – | – | 89.7 | 108 | 101 | 99.2 | 98.2 | –
3 µM | 93 | 107 | – | – | – | – | – | 0.05
10 µM | 99 | 99 | – | – | – | – | – | 0.27
10000 nM | – | – | 45.6 | 80.6 | 55.7 | 30 | 82.9 | –
30 µM | 14 | 64 | – | – | – | – | – | 0.48

drug-induced phospholipidosis [%], A549-ACE2
Conditions | 0.3 µM | 0.833333 µM | 3.33333 µM | 6.66667 µM | 10 µM | 30 µM
24 h | 1.25 | 2.99 | 3.97 | 17.5 | 28.2 | 105
48 h | 3.07 | 1.47 | 2.2 | 8.78 | 11 | –
72 h | 3.47 | 0.682 | 1.8 | 7.67 | 8.59 | –

Conditions | drug sensitivity score | relative viability EC50 [µM]
Caco-2 [2] | 4.6 | –
Caco-2 [8] | – | 1.79
Calu-3 [4] | 0.3 | –
Calu-3 [9] | – | > 10
HepG2 [3] | 2.2 | –
U2OS [6] | 4 | –
U2OS [11] | – | 3.08
Vero E6 [5] | 0.6 | –
Vero E6 [10] | – | > 10

O=c1[nH]cnc2c1ncn2[C@H]1CC[C@@H](CO)O1 [didanosine]
Conditions | drug sensitivity score | relative viability EC50 [µM]
Caco-2 [2] | 0 | –
Caco-2 [8] | – | > 10
Calu-3 [4] | 0 | –
Calu-3 [9] | – | > 10
HepG2 [3] | 0 | –
HepG2 [18] | – | > 10
U2OS [6] | 0 | –
U2OS [11] | – | > 10
Vero E6 [5] | 0 | –
Vero E6 [10] | – | > 10

cell viability [%]
Conditions | Caco-2 [12] | Calu-3 [14] | HepG2 [13] | U2OS [16] | Vero E6 [15]
1 nM | 107 | 96.3 | 99.6 | 99.4 | 96
10 nM | 88.7 | 85 | 84.8 | 93.6 | 97.3
100 nM | 97.9 | 114 | 90.7 | 102 | 95.2
1000 nM | 85.3 | 106 | 90.8 | 101 | 98
10000 nM | 108 | 99.9 | 105 | 107 | 107

CC(C)(C)c1cc(NC(=O)Nc2ccc(-c3cn4c(n3)sc3cc(OCCN5CCOCC5)ccc34)cc2)no1 [quizartinib]
Conditions | drug sensitivity score | relative viability EC50 [µM]
Caco-2 [2] | 0.6 | –
Caco-2 [8] | – | > 10
Calu-3 [4] | 0 | –
Calu-3 [9] | – | > 10
HepG2 [3] | 0 | –
HepG2 [18] | – | > 10
U2OS [6] | 0 | –
U2OS [11] | – | > 10
Vero E6 [5] | 0 | –
Vero E6 [10] | – | > 10

cell viability [%]
Conditions | Caco-2 [12] | Calu-3 [14] | HepG2 [13] | U2OS [16] | Vero E6 [15]
1 nM | 103 | 104 | 85.7 | 101 | 99.1
10 nM | 105 | 97.3 | 97.5 | 97.4 | 100
100 nM | 103 | 96.6 | 90.9 | 103 | 98.8
1000 nM | 90.9 | 93.4 | 89 | 93.6 | 104
10000 nM | 86.5 | 96.1 | 93.3 | 103 | 99.8

Cc1ccc2c(-c3ccccc3)nc(=O)n(C(C)C)c2c1 [proquazone]
Conditions | drug sensitivity score | relative viability EC50 [µM]
Caco-2 [2] | 0 | –
Caco-2 [8] | – | > 10
Calu-3 [4] | 0 | –
Calu-3 [9] | – | > 10
HepG2 [3] | 0 | –
HepG2 [18] | – | > 10
U2OS [6] | 0 | –
U2OS [11] | – | > 10
Vero E6 [5] | 0 | –
Vero E6 [10] | – | > 10

cell viability [%]
Conditions | Caco-2 [12] | Calu-3 [14] | HepG2 [13] | U2OS [16] | Vero E6 [15]
1 nM | 86.9 | 92.9 | 96.7 | 99.7 | 93.4
10 nM | 89.3 | 94.9 | 109 | 94.5 | 92.4
100 nM | 81.4 | 104 | 102 | 96.2 | 89.3
1000 nM | 103 | 105 | 102 | 92.4 | 105
10000 nM | 99.8 | 117 | 110 | 105 | 103

COc1cc(C[C@H]2C(=O)OC[C@@H]2Cc2ccc(OC)c(OC)c2)ccc1O [arctigenin]
Conditions | drug sensitivity score | relative viability EC50 [µM]
Caco-2 [2] | 2.3 | –
Caco-2 [8] | – | > 10
Calu-3 [4] | 0 | –
Calu-3 [9] | – | > 10
HepG2 [3] | 7.8 | –
HepG2 [18] | – | 1.44
U2OS [6] | 0.4 | –
U2OS [11] | – | > 10
Vero E6 [5] | 0 | –
Vero E6 [10] | – | > 10

cell viability [%]
Conditions | Caco-2 [12] | Calu-3 [14] | HepG2 [13] | U2OS [16] | Vero E6 [15]
1 nM | 96.2 | 112 | 93.7 | 101 | 96
10 nM | 98.9 | 96.9 | 94.8 | 101 | 98.2
100 nM | 94.5 | 103 | 96.6 | 98.3 | 89.8
1000 nM | 84.4 | 97.9 | 77.3 | 92 | 100
10000 nM | 77.1 | 89.3 | 21 | 86 | 95

O=C(O)c1ccc(-c2c[nH]c3ncc(-c4ccccc4)cc23)cc1C1CCCC1
Conditions | drug sensitivity score | relative viability EC50 [µM]
Caco-2 [2] | 0 | –
Caco-2 [8] | – | > 10
Calu-3 [4] | 0 | –
Calu-3 [9] | – | > 10
HepG2 [3] | 1.1 | –
HepG2 [18] | – | > 10
U2OS [6] | 0 | –
U2OS [11] | – | > 10
Vero E6 [5] | 0 | –
Vero E6 [10] | – | > 10

cell viability [%]
Conditions | Caco-2 [12] | Calu-3 [14] | HepG2 [13] | U2OS [16] | Vero E6 [15]
1 nM | 92.8 | 98.8 | 103 | 96.4 | 109
10 nM | 107 | 92.9 | 100 | 94.9 | 106
100 nM | 101 | 97.6 | 107 | 90.4 | 104
1000 nM | 105 | 107 | 89.6 | 97.3 | 97
10000 nM | 93.5 | 107 | 84.2 | 85.8 | 101
